Reference: ChEMBL document CHEMBL1139807, “Discovery of (-)-6-[2-[4-(3-fluorophenyl)-4-hydroxy-1-piperidinyl]-1-hydroxyethyl]-3,4-dihydro-2(1H)-quinolinone--a potent NR2B-selective N-methyl D-aspartate (NMDA) antagonist for the treatment of pain” (Bioorg Med Chem Lett, 2007)

Columns and labels:
[1] = molecular target: Cytochrome P450 2D6 (Homo sapiens, UniProt P10635); assay: Displacement of [3H]bufuralol from CYP2D6; assay type: ADME
[2] = molecular target: Glutamate receptor ionotropic, NMDA 2B (Rattus norvegicus, UniProt P35439+Q00960); assay: Displacement of [3H]racemic CP-101606 from rat NR2B receptor in P2 membrane; assay type: cell membranes
Glutamate receptor ionotropic, NMDA 2B, sequence (Q00960 whole entry, one chain of several): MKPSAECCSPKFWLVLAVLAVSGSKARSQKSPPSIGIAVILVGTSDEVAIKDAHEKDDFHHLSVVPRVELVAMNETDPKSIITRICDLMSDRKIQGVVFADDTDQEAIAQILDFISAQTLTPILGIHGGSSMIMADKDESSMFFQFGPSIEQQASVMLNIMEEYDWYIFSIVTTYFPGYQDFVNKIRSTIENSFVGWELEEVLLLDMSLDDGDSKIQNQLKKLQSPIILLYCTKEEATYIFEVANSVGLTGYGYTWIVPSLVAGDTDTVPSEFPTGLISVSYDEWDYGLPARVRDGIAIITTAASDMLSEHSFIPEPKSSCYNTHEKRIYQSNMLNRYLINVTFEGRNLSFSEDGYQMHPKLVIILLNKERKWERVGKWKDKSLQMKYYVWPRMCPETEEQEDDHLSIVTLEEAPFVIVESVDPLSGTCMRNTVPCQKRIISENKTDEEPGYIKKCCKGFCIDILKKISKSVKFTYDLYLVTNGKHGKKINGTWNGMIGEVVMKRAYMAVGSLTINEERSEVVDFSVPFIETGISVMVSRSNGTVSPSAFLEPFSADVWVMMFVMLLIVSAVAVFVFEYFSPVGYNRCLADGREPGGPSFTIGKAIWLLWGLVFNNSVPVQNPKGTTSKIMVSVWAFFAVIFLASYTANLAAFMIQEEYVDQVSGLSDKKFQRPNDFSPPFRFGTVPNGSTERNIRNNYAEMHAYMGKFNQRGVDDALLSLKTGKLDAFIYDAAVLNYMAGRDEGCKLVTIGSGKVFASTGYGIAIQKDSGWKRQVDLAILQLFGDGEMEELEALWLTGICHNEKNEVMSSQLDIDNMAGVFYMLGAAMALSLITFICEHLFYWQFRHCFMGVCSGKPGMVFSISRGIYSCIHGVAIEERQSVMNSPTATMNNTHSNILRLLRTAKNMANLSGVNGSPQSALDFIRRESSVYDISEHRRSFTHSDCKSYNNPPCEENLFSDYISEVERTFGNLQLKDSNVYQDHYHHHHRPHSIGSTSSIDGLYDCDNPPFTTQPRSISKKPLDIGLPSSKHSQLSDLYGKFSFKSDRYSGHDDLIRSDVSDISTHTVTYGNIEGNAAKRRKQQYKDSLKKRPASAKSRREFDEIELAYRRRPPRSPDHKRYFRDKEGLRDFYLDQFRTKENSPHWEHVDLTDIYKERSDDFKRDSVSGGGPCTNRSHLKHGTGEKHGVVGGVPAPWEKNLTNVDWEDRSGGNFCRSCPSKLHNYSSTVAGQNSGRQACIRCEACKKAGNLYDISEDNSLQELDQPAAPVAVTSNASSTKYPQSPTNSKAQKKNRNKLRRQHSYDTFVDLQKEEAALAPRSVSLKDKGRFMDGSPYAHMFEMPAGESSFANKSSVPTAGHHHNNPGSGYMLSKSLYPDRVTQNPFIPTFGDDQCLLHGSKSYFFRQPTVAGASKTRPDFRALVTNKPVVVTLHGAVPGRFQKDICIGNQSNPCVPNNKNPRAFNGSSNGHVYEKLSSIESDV

[3] = Ratio of Half life of compound in human liver microsome HHM0168 to half life in human liver microsome HHM0168 in presence of CYP2D6; assay type: ADME; conditions: microsomes
[4] = molecular target: Voltage-gated inwardly rectifying potassium channel KCNH2 (Homo sapiens, UniProt Q12809); assay: Displacement of [3H]bufuralol from hERG channel expressed in HEK293 cells
Voltage-gated inwardly rectifying potassium channel KCNH2, sequence (Q12809 whole entry): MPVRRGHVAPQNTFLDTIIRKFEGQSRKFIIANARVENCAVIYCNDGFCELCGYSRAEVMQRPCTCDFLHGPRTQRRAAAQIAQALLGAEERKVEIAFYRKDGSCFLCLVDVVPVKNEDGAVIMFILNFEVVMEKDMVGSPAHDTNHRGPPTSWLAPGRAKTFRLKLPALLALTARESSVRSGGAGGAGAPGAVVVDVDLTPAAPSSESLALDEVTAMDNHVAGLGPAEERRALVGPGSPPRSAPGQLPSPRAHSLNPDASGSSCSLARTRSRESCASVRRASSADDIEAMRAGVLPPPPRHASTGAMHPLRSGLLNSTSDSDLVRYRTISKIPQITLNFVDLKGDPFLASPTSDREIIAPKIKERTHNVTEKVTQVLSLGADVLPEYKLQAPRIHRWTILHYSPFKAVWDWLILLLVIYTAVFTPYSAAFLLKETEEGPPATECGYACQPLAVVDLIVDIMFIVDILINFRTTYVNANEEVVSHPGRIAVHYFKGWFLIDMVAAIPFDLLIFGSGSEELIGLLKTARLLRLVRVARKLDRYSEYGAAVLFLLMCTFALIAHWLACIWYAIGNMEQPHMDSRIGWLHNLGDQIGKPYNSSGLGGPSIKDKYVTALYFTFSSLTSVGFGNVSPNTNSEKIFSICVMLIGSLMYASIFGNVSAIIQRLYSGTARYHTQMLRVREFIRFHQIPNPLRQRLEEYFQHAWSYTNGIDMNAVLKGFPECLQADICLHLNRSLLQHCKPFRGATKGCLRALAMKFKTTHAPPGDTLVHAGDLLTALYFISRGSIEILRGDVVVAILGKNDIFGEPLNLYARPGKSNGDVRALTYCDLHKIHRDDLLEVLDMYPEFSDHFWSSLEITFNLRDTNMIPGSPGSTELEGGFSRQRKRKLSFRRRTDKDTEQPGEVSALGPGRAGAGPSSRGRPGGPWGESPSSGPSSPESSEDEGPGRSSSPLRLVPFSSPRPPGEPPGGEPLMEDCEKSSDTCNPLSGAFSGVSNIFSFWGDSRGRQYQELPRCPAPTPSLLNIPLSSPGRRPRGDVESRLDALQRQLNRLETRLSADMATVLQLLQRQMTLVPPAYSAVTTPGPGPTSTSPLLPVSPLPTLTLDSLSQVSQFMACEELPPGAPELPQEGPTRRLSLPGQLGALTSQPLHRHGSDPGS

[5] = system: Rattus norvegicus; assay: Effect on haloperidol catalepsy in po dosed rat assessed as latency to paw withdrawal; assay type: functional; conditions: read-out: MED
[6] = molecular target: hERG (KCNH2) (Homo sapiens, UniProt Q12809); assay: Blockade of hERG channel expressed in HEK293 cells by electrophysiological method; assay type: cell-based; conditions: HEK293 cells expressing hERG channel
hERG (KCNH2), sequence (Q12809 whole entry): as above

Cytochrome P450 2D6, sequence (P10635 whole entry): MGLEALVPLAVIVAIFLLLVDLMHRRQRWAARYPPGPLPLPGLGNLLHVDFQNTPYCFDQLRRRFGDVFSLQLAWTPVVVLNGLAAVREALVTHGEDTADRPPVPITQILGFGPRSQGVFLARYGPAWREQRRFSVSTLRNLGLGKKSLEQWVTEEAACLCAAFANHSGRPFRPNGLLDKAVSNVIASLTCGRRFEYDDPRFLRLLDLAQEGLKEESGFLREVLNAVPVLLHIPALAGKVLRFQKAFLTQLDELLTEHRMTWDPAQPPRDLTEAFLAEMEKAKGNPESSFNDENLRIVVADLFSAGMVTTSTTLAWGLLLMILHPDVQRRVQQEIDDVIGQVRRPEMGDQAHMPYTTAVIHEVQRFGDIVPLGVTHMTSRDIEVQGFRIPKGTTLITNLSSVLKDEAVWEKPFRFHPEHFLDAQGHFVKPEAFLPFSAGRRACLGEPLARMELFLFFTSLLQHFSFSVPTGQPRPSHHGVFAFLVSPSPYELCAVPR

| SMILES | IC50 [1] [nM] | IC50 [2] [nM] | Ratio [3] | IC50 [4] [nM] | minimal effective dose [5] [mg/kg] | IC20 [6] [nM] |
| --- | --- | --- | --- | --- | --- | --- |
| CC(C(O)c1ccc(O)c(-c2ccccc2)c1)N1CCC(O)(c2ccc(F)cc2)CC1 (racemic) | 8400 | 570 | – | – | – | – |
| CC(C(O)c1ccc2[nH]c(=O)oc2c1)N1CCC(O)(c2ccc(F)cc2)CC1 (racemic) | 11000 | 41 | 1 | 2600 | – | – |
| CC(C(O)c1ccc2c(c1)OCC(=O)N2)N1CCC(O)(c2ccc(F)cc2)CC1 (racemic) | > 30000 | 8.7 | 1 | 1600 | – | – |
| CC(C(O)c1ccc2c(c1)CNC(=O)N2)N1CCC(O)(c2ccc(F)cc2)CC1 (racemic) | > 30000 | 9.1 | 1 | 7400 | – | – |
| CC(C(O)c1ccc2c(c1)CN(C)C(=O)N2)N1CCC(O)(c2ccc(F)cc2)CC1 (racemic) | > 30000 | 14 | 1 | 3100 | – | – |
| CC(C(O)c1ccc2c(c1)CCC(=O)N2)N1CCC(O)(c2ccc3c(c2)COCC3)CC1 (racemic) | – | 15 | – | 16000 | > 30 | – |
| COc1cccc(C2(O)CCN(C(C)C(O)c3ccc4c(c3)CCC(=O)N4)CC2)c1 (racemic) | – | 8.3 | – | – | 30 | – |
| O=C1CCc2cc(C(O)CN3CCC(O)(c4cccc(F)c4)CC3)ccc2N1 (racemic) | – | 4.5 | – | 13000 | – | – |
| Cc1cc(C(O)C(C)N2CCC(O)(c3ccc(F)cc3)CC2)ccc1O (racemic) | < 300 | – | – | – | – | – |
| Cc1cc(O)ccc1C(O)C(C)N1CCC(O)(c2ccc(F)cc2)CC1 (racemic) | 3900 | 16 | > 4.5 | – | – | – |
| CC(C(O)c1ccc(O)c(C(C)(C)C)c1)N1CCC(O)(c2ccc(F)cc2)CC1 (racemic) | – | > 5000 | – | – | – | – |
| Cc1ccc(C2(O)CCN(C(C)C(O)c3ccc4c(c3)CCC(=O)N4)CC2)cc1 (racemic) | – | 9.1 | – | – | – | – |
| CC(C(O)c1ccc2c(c1)CCC(=O)N2)N1CCC(O)(c2cccc(COc3ccccc3)c2)CC1 (racemic) | – | 6.3 | – | – | – | – |
| CC(C(O)c1ccc2c(c1)CCC(=O)N2)N1CCC(O)(c2ccc(Cl)cc2)CC1 (racemic) | – | 6.6 | – | – | 10 | – |
| CC(C(O)c1ccc(O)c(Cl)c1)N1CCC(O)(c2ccc(F)cc2)CC1 (racemic) | 3500 | 5.6 | 1.6 | – | – | – |
| CC(C(O)c1ccc2c(c1)COC(=O)N2)N1CCC(O)(c2ccc(F)cc2)CC1 (racemic) | > 30000 | 18 | 1 | 2400 | – | – |
| CC(C(O)c1ccc2c(c1)CCC(=O)N2)N1CCC(O)(c2ccc(F)cc2)CC1 (racemic) | > 30000 | 11 | – | – | – | – |
| CC(C(O)c1ccc2c(c1)CCC(=O)N2)N1CCC(O)(c2cccc(F)c2)CC1 (racemic) | – | 10 | – | – | 10 | – |
| O=C1CCc2cc(C(O)CN3CCC(O)(c4cccc(F)c4)CC3)ccc2N1 (single isomer, unassigned; (+)) | – | 6.8 | – | 9800 | – | – |
| O=C1CCc2cc(C(O)CN3CCC(O)(c4cccc(F)c4)CC3)ccc2N1 (single isomer, unassigned; (-)) | – | 5 | – | 21000 | – | 1100 |
| C[C@@H]([C@@H](O)c1ccc(O)cc1)N1CCC(O)(c2ccccc2)CC1 [TRAXOPRODIL] | – | – | – | 10000 | – | 150 |
